± gives the standard deviation of the averaged measurements.
Legend:
Assay in all cases: level (log10 ratio to DMSO vehicle control); higher = higher biomarker level / cell amount than vehicle control
[1] = compound: O=S(=O)(O)CCC(F)(F)C(F)(F)C(F)(F)C(F)(F)F [4:2 Fluorotelomer sulfonic acid]; settings: in DMSO
Method: (§1)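 BioMAP Diversity Plus panel of 12 human primary cell co-culture systems (3C, 4H, LPS, SAg, BT, BF4T, BE3C, CASM3C, HDF3CGF, KF3CT, MyoF, Mphg). Compounds were added 1 h before stimulation and left for 24 h (MyoF 48 h; BT 72 h for soluble read-outs or 6 d for IgG). Biomarkers were read by ELISA, cytotoxicity by SRB, PBMC viability and proliferation by Alamar Blue. Each well value was divided by the mean of 8 DMSO control wells on the same plate and log10 transformed; duplicate blinded samples were tested at 4 concentrations.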

[2] = compound: OCC(F)(F)C(F)(F)C(F)(F)C(F)(F)C(F)(F)C(F)(F)F [6:1 Fluorotelomer alcohol]; settings: in DMSO
Method: as §1

[3] = compound: O=C(CC(=O)C(F)(F)C(F)(F)C(F)(F)F)c1cccs1 [(Perfluorobutyryl)-2-thenoylmethane]; settings: in DMSO
Method: as §1

[4] = compound: OCC(F)(F)C(F)(F)C(F)(F)C(F)(F)C(F)(F)C(F)(F)C(F)(F)C(F)(F)C(F)(F)C(F)(F)C(F)(F)F [11:1 Fluorotelomer alcohol]; settings: in DMSO
Method: as §1

[5] = compound: O=C(Cl)C(F)(F)C(F)(F)C(F)(F)C(=O)Cl [Hexafluoroglutaryl chloride]; settings: in DMSO
Method: as §1

[6] = compound: FC(F)(I)C(F)(F)C(F)(F)C(F)(F)C(F)(F)C(F)(F)I [1,6-Diiodoperfluorohexane]; settings: 6700 nM; in DMSO
Method: as §1

[7] = compound: O=S(=O)(OCC(F)(F)F)C(F)(F)C(F)(F)C(F)(F)C(F)(F)F [2,2,2-Trifluoroethyl perfluorobutanesulfonate]; settings: in DMSO
Method: as §1

Test System	level (log10) ([1]; 6700 nM)	level (log10) ([1]; 20000 nM)	level (log10) ([1]; 60000 nM)	level (log10) ([2]; 6700 nM)	level (log10) ([2]; 20000 nM)	level (log10) ([2]; 60000 nM)	level (log10) ([3]; 6700 nM)	level (log10) ([3]; 20000 nM)	level (log10) ([4]; 1100 nM)	level (log10) ([4]; 3300 nM)	level (log10) ([4]; 10000 nM)	level (log10) ([5]; 6700 nM)	level (log10) ([5]; 20000 nM)	level (log10) ([5]; 60000 nM)	level (log10) [6]	level (log10) ([7]; 6700 nM)	level (log10) ([7]; 20000 nM)	level (log10) ([7]; 60000 nM)
MyoF:MMP-1	-0.022	-0.05 ± 0.0057	-0.005 ± 0.047	-0.018 ± 0.014	-0.0295 ± 0.0078	0.15 ± 0.26	-0.0565 ± 0.052	-0.0005 ± 0.018	-0.027 ± 0.0042	-0.0445 ± 0.0021	0.004 ± 0.052	-0.043 ± 0.05	-0.026 ± 0.054	-0.0195 ± 0.018	0.469	0.018 ± 0.16	0.043 ± 0.16	0.0695 ± 0.12
3C:CD142/Tissue Factor	-0.007 ± 0.044	0.0225 ± 0.011	0.024 ± 0.025	-0.007 ± 0.0014	0.004 ± 0.014	0.0005 ± 0.026	-0.0775 ± 0.022	-0.356 ± 0.057	0.028 ± 0.024	0.074 ± 0.034	0.0865 ± 0.0092	-0.04 ± 0.042	-0.0435 ± 0.0092	-0.07 ± 0.092	-0.001	0.0285 ± 0.046	0.011 ± 0.037	-0.018 ± 0.034
BE3C:uPA	-0.001 ± 0.014	0 ± 0.0057	-0.0035 ± 0.0092	-0.0055 ± 0.0021	-0.005 ± 0.013	0.001 ± 0.0014	0.0235 ± 0.00071	0.0095 ± 0.022	-0.0155 ± 0.013	-0.0405 ± 0.0078	-0.0175 ± 0.0035	-0.0015 ± 0.0064	-0.004 ± 0.0028	-0.0035 ± 0.0064	-0.002	-0.001 ± 0.0099	-0.013 ± 0.0014	-0.0135 ± 0.023
HDF3CGF:SRB	-0.0365 ± 0.037	-0.0075 ± 0.033	0.033 ± 0.058	0.0015 ± 0.067	-0.003 ± 0.025	-0.139 ± 0.13	0.0935 ± 0.005	0.0145 ± 0.005	-0.0055 ± 0.011	-0.0055 ± 0.016	0.0315 ± 0.036	-0.004 ± 0.0085	0.0295 ± 0.0035	0.007 ± 0.014	-0.644	0.0205 ± 0.012	0.0125 ± 0.029	0.0325 ± 0.035
HDF3CGF:EGFR	-0.0575 ± 0.093	-0.042 ± 0.054	-0.019 ± 0.079	0.009 ± 0.041	0.0125 ± 0.019	-0.0555 ± 0.035	-0.101 ± 0.073	-0.0595 ± 0.018	0.034 ± 0.024	0.044 ± 0.064	0.0275 ± 0.083	-0.0195 ± 0.012	-0.0115 ± 0.011	-0.01 ± 0.057	-0.044	-0.0215 ± 0.077	-0.022 ± 0.09	0.047 ± 0.03
CASM3C:CCL2/MCP-1	-0.002 ± 0.0057	0.0015 ± 0.011	0.0125 ± 0.036	-0.015 ± 0.0071	-0.0125 ± 0.0078	-0.034 ± 0.034	0.039 ± 0.011	-0.017 ± 0.011	-0.01 ± 0.024	-0.0055 ± 0.012	0.012 ± 0.025	-0.0055 ± 0.013	-0.005 ± 0.0014	0.011 ± 0.014	-0.006	-0.0155 ± 0.0035	-0.0105 ± 0.005	0.0065 ± 0.0035
HDF3CGF:CXCL11/I-TAC	-0.0475 ± 0.059	-0.037 ± 0.064	-0.089 ± 0.024	-0.009 ± 0.016	-0.014 ± 0.0071	-0.22 ± 0.35	-0.014 ± 0.013	-0.114 ± 0.0092	-0.0245 ± 0.03	-0.0655 ± 0.005	-0.0155 ± 0.04	-0.015 ± 0.0057	-0.0145 ± 0.022	-0.0085 ± 0.013	-0.434	-0.014 ± 0.016	-0.0495 ± 0.00071	-0.137 ± 0.016
lMphg:CD40	-0.008 ± 0.0028	-0.015 ± 0.021	-0.026 ± 0.011	-0.0065 ± 0.026	-0.0095 ± 0.019	-0.0235 ± 0.022	-0.0105 ± 0.016	-0.119 ± 0.0071	0.0005 ± 0.036	0.005 ± 0.042	-0.357 ± 0.028	0.036 ± 0.037	0.0115 ± 0.022	-0.002 ± 0.011	-0.029	-0.0015 ± 0.00071	0.0085 ± 0.04	-0.007 ± 0.017
CASM3C:CXCL8/IL-8	0.0035 ± 0.0035	-0.0095 ± 0.026	0.0075 ± 0.025	0.0005 ± 0.015	0.004 ± 0.018	0 ± 0.0014	-0.0045 ± 0.0021	-0.043 ± 0.0057	-0.0025 ± 0.0035	-0.006	-0.007 ± 0.064	0.0095 ± 0.021	0.006 ± 0.016	0.0005 ± 0.052	-0.02	0.0335 ± 0.0064	0.031 ± 0.048	0.024 ± 0.042

— the supplement of paper PMC10331698
